Laboratory results taken from ChEMBL document CHEMBL4330058, “Discovery of novel anti-angiogenesis agents. Part 10: Multi-target inhibitors of VEGFR-2, Tie-2 and EphB4 incorporated with 1,2,3-triazol” (Eur J Med Chem, 2019).

Experiments:
[1] = system: EA.hy 926; assay: Anti-angiogenic activity against human EAhy926 after 24 hrs by CCK-8 assay; assay type: functional, cell-based; settings: EA.hy 926, 24 h
[2] = target: Vascular endothelial growth factor receptor 2 (Homo sapiens, UniProt P35968); assay: Inhibition of VEGFR2 (unknown origin) after 1 hr by ADP-Glo reagent based luminescent assay
[3] = system: MCF7; assay: Antiproliferative activity against human MCF7 cells
[4] = system: SMMC-7721; assay: Antiproliferative activity against human SMMC7721 cells
[5] = system: HeLa; assay: Antiproliferative activity against human HeLa cells
[6] = system: A549; assay: Antiproliferative activity against human A549 cells
[7] = system: LoVo; assay: Antiproliferative activity against human LoVo cells
[8] = system: A-431; assay: Antiproliferative activity against human A431 cells
[9] = system: PANC-1; assay: Antiproliferative activity against human PANC1 cells
[10] = target: T1, Ephrin type-B receptor 4 (Homo sapiens, UniProt P54760); assay: Inhibition of EPHB4 (unknown origin) after 4 hrs by ADP-Glo reagent based luminescent assay
T1 sequence (P54760 whole entry): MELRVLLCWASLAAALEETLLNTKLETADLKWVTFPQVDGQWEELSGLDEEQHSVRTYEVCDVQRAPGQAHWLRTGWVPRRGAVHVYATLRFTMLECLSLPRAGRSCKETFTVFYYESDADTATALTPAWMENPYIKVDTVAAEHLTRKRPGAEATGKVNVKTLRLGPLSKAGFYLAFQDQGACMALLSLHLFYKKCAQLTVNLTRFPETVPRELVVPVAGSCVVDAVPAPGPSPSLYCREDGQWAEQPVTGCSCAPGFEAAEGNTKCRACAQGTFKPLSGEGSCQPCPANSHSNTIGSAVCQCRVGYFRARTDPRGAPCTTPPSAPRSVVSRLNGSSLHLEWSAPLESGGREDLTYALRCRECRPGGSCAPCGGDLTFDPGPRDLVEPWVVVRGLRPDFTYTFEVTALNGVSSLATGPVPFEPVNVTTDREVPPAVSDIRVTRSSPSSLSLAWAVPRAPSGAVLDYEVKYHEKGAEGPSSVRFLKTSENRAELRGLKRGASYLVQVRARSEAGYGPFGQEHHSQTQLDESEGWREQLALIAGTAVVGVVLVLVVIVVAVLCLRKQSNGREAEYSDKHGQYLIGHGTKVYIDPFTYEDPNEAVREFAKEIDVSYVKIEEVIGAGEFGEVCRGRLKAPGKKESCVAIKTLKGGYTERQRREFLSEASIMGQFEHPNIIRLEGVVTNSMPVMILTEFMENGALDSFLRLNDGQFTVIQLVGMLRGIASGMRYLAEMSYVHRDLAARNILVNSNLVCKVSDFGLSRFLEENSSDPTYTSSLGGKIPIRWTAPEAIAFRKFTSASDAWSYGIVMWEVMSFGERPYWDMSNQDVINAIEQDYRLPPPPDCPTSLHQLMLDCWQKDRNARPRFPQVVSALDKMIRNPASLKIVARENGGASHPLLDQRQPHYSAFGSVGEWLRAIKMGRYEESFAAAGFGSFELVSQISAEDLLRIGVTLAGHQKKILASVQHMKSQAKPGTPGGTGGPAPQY

[11] = target: Angiopoietin-1 receptor (Homo sapiens, UniProt Q02763); assay: Inhibition of TIE2 (unknown origin) after 4 hrs by ADP-Glo reagent based luminescent assay
Angiopoietin-1 receptor, sequence (Q02763 whole entry): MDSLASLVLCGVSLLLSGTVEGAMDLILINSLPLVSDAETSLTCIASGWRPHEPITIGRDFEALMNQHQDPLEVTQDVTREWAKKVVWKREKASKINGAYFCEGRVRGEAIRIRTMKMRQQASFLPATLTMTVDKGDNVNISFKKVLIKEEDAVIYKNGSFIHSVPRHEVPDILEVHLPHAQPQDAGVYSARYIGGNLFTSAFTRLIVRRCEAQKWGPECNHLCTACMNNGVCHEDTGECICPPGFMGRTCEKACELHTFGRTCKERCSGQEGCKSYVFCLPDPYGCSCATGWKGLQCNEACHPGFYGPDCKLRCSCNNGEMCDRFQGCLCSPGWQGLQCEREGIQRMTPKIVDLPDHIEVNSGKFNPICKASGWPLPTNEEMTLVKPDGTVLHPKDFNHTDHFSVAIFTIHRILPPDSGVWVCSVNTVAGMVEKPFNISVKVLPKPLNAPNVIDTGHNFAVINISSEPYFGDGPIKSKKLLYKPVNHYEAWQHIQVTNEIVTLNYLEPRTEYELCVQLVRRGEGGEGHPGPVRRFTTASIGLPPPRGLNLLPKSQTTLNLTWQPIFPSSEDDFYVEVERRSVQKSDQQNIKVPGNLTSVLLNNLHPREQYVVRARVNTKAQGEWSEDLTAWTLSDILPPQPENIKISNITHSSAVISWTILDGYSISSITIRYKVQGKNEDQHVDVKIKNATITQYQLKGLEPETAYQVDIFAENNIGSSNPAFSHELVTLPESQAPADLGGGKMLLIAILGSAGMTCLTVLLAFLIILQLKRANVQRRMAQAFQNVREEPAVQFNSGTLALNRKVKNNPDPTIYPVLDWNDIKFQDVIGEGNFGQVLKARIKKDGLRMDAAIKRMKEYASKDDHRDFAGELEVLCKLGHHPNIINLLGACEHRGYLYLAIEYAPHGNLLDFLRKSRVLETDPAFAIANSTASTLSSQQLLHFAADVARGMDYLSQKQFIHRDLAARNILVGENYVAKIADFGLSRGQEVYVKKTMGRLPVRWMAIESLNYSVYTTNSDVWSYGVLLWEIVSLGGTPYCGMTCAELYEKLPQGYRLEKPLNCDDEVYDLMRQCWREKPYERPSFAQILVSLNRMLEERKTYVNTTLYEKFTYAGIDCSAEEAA

Vascular endothelial growth factor receptor 2, sequence (P35968 whole entry): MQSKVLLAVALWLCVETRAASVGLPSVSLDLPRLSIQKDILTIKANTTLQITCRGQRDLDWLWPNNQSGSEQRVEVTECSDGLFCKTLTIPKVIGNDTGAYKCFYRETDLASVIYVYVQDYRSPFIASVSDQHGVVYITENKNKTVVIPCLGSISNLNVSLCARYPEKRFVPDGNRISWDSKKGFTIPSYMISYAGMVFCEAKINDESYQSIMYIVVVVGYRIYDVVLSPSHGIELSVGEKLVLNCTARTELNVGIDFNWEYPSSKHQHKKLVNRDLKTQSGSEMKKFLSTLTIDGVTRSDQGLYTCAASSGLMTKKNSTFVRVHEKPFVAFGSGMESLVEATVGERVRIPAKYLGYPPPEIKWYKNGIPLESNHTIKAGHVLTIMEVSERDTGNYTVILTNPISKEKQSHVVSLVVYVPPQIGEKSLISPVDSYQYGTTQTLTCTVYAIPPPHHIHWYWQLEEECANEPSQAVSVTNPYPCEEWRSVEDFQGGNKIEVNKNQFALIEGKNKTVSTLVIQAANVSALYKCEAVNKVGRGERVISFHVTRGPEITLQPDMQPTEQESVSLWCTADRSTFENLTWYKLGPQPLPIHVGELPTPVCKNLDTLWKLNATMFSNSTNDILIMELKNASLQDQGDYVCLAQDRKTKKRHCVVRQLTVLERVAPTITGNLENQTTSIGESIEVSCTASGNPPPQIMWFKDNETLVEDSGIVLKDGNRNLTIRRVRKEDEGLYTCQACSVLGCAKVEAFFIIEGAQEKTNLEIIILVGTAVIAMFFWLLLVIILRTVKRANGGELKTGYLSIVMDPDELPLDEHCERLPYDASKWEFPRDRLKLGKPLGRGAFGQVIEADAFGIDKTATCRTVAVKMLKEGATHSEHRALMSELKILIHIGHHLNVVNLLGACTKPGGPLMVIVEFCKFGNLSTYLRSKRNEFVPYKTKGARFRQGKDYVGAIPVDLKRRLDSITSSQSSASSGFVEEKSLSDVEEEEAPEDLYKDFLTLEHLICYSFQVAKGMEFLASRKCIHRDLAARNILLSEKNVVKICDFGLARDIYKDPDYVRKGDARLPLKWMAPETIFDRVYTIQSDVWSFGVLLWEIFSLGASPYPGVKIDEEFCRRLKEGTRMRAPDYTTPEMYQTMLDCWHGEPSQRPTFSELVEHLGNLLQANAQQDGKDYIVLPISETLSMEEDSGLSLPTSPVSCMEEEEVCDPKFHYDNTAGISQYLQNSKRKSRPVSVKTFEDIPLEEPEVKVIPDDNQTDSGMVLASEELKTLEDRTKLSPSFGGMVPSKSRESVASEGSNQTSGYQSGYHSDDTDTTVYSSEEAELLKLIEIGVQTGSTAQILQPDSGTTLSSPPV

Q: With `COc1ccc(-c2ccc(Cn3cc(-c4ccccc4F)nn3)cc2)cn1` as the molecule, how does the IC50 [1] read?
A: 708000 nM

Q: And the IC50 [2]?
A: > 1000 nM

Q: What does the source list for `COc1ccc(-c2ccc(Cn3cc(-c4cccc(N)c4)nn3)cc2)cn1`?
A: IC50 [3]: 350 nM; IC50 [4]: 240 nM; IC50 [1]: 14500 nM; IC50 [5]: 290 nM; IC50 [6]: 180 nM; IC50 [7]: 100 nM; IC50 [8]: 70 nM; IC50 [9]: 490 nM

Q: Which IC50 [1] does the source give for `FC(F)(F)c1cccc(-c2cn(Cc3ccc(-c4cccnc4)cc3)nn2)c1` here?
A: 137000 nM

Q: And the IC50 [10]?
A: > 1000 nM

Q: And the IC50 [2]?
A: > 1000 nM

Q: How did the IC50 [1] turn out when `Clc1cccc(-c2cn(Cc3ccc(-c4cccnc4)cc3)nn2)c1` was run?
A: 431000 nM

Q: Which IC50 [1] does the source give for `FC(F)(F)c1ccc(-c2cn(Cc3ccc(-c4cccnc4)cc3)nn2)cc1` here?
A: 170000 nM

Q: And the IC50 [10]?
A: > 1000 nM

Q: And the IC50 [11]?
A: > 1000 nM

Q: With `COc1ccc(-c2ccc(Cn3cc(-c4ccc(C)cc4)nn3)cc2)cn1` as the molecule, how does the IC50 [1] read?
A: 678000 nM

Q: For `COc1ccc(-c2ccc(Cn3cc(-c4cccc(Cl)c4)nn3)cc2)cn1`, which IC50 [1] is on record?
A: 440000 nM

Q: Which IC50 [1] does the source give for `Fc1ccccc1-c1cn(Cc2ccc(-c3cccnc3)cc2)nn1` here?
A: 9280 nM

Q: With `Nc1cccc(-c2cn(Cc3ccc(-c4cccnc4)cc3)nn2)c1` as the molecule, how does the IC50 [1] read?
A: 24300 nM

Q: With `COc1ccc(-c2ccc(Cn3cc(-c4ccccc4)nn3)cc2)cn1` as the molecule, how does the IC50 [1] read?
A: 110000 nM

Q: What about the IC50 [10] of the same molecule?
A: > 1000 nM

Q: What about the IC50 [11] of the same molecule?
A: > 1000 nM

Q: Which results are given for `Cc1ccc(-c2cn(Cc3ccc(-c4cccnc4)cc3)nn2)cc1`?
A: IC50 [1]: 6490 nM; IC50 [11]: > 1000 nM

Q: With `COc1ccc(-c2ccc(Cn3cc(-c4ccc(C(F)(F)F)cc4)nn3)cc2)cn1` as the molecule, how does the IC50 [1] read?
A: 122000 nM

Q: And the IC50 [10]?
A: > 1000 nM

Q: How did the IC50 [1] turn out when `c1ccc(-c2cn(Cc3ccc(-c4cccnc4)cc3)nn2)cc1` was run?
A: 12100 nM

Q: For `COc1ccc(-c2ccc(Cn3cc(-c4cccc(C)c4)nn3)cc2)cn1`, which IC50 [1] is on record?
A: 43900 nM

Q: What about the IC50 [11] of the same molecule?
A: > 1000 nM

Q: Which IC50 [1] does the source give for `Cc1cccc(-c2cn(Cc3ccc(-c4cccnc4)cc3)nn2)c1` here?
A: 134000 nM

Q: What about the IC50 [10] of the same molecule?
A: > 1000 nM

Q: With `CNC(=O)c1cc(Oc2ccc(NC(=O)Nc3ccc(Cl)c(C(F)(F)F)c3)cc2)ccn1` [SORAFENIB] as the molecule, how does the IC50 [3] read?
A: 90 nM

Q: What about the IC50 [4] of the same molecule?
A: 300 nM

Q: And the IC50 [1]?
A: 11700 nM

Q: And the IC50 [5]?
A: 270 nM

Q: And the IC50 [6]?
A: 80 nM

Q: And the IC50 [7]?
A: 250 nM

Q: And the IC50 [8]?
A: 120 nM

Q: What about the IC50 [9] of the same molecule?
A: 150 nM
